Measurements taken from PubChem BioAssay (NCI).
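All cell lines were grown in 96-well plates and treated with compound for 48 hours. GI50 is the concentration that inhibits growth by half. TGI marks complete inhibition of growth.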

Legend:
Experiment in all cases: inhibition of tumour cell growth, NCI panel, 48 h
NCI-H23 lung = tested on: NCI-H23 lung
NCI/ADR-RES ovarian = tested on: NCI/ADR-RES ovarian
SF-295 CNS = tested on: SF-295 CNS
SK-MEL-5 melanoma = tested on: SK-MEL-5 melanoma
NCI-H522 lung = tested on: NCI-H522 lung
ACHN renal = tested on: ACHN renal
SNB-19 CNS = tested on: SNB-19 CNS
SK-MEL-28 melanoma = tested on: SK-MEL-28 melanoma

Row | Compound | GI50 (NCI-H23 lung) [µM] | TGI (NCI-H23 lung) [µM] | GI50 (NCI/ADR-RES ovarian) [µM] | TGI (NCI/ADR-RES ovarian) [µM] | GI50 (SF-295 CNS) [µM] | TGI (SF-295 CNS) [µM] | GI50 (SK-MEL-5 melanoma) [µM] | TGI (SK-MEL-5 melanoma) [µM] | GI50 (NCI-H522 lung) [µM] | TGI (NCI-H522 lung) [µM] | GI50 (ACHN renal) [µM] | TGI (ACHN renal) [µM] | GI50 (SNB-19 CNS) [µM] | TGI (SNB-19 CNS) [µM] | GI50 (SK-MEL-28 melanoma) [µM] | TGI (SK-MEL-28 melanoma) [µM]
1 | Cn1cc(C2=C(c3cccc(OC[C@@H](O)CO)c3)C(=O)NC2=O)c2ccccc21 | > 25 | > 25 | > 25 | > 25 | 3.59 | > 25 | > 8.72 | > 25 | 24.8 | > 25 | 16.5 | > 25 | > 25 | > 25 | > 25 | > 25
2 | COc1cc2c(cc1OCCCCN1CCN(C(=S)SCCC(C#N)(c3ccccc3)c3ccccc3)CC1)N=C[C@@H]1CCCN1C2=O |  |  | 3.05 | > 100 |  |  | 1.11 | 2.82 | 0.196 | 0.642 |  |  | 1.67 | 3.98 |  | 
3 | CN(CCNCc1ccccn1)CCNCc1ccccn1 | 3.55 | > 100 | 3.57 | > 100 | 2.23 | 5.69 | 1.75 | 3.16 |  |  | 2.2 | 5.82 | 5.29 | 18.5 | 2.64 | 8.17
4 | Cc1cccc2c3c(sc12)C(c1ccc(Cl)cc1)C(C#N)=C(N)O3 (stereo not given) | 0.436 | 10.4 | 0.302 | 2.46 | 0.26 | 0.992 | 0.467 | 4.11 | 0.314 | 4.95 | 0.834 | 14.1 | 0.452 | 12.6 | 3.69 | 20.7
5 | N#CCN1CCn2c1nsc2=S |  |  |  |  | > 100 | > 100 | > 100 | > 100 | 64.7 | > 100 | > 100 | > 100 | > 100 | > 100 | > 100 | > 100
6 | C[C@]12CC[C@@H]3c4cc(OC(F)F)c(OS(N)(=O)=O)cc4CC[C@H]3[C@@H]1CC[C@@H]2O | 0.621 | 20.1 | 0.601 | 16.7 | 0.252 | 1.03 | 0.315 | 3.56 | 0.274 | 14.8 | 0.65 | 49.1 | 0.532 | 25.6 | 1.43 | 24.6
7 | C(=N/N(Cc1ccccc1)Cc1ccccc1)/c1ccccc1 | 90.8 | > 100 | > 100 | > 100 | 44.5 | > 100 | 55.4 | > 100 | > 100 | > 100 | > 100 | > 100 | > 100 | > 100 | > 100 | > 100
8 | COc1ccc(N(CC(=O)NCCC[Te]c2ccccc2)C(=O)CNC(=O)OC(C)(C)C)cc1 | 2.5 | 6.61 | 2.91 | 7.16 | 1.27 | 4.11 | 3.13 | 9.13 | 2.56 | 10.6 | 3.12 | 8.86 | 0.875 | 9.64 | 3.07 | 10.1
9 | CCN(CC)CCCCCCNc1cc(OC)cc2cccnc12 | 13.3 | 30.3 | 7.16 | 27.3 | 11.4 | 26.5 | 2.53 | 6.34 | 2.17 | 4.76 | 1.84 | 3.56 | 8.17 | 30.8 | 2.09 | 4.53
10 | O=[N+]([O-])c1ccc(N2CCOCC2)c2c1no[n+]2[O-] | 1.08 | 4.83 | 1.54 | 12.3 | 1.08 | 4.67 | 1.41 | 3.34 | 0.649 | 2.33 | 0.528 | 3.15 | 3.74 | 16.4 | 4.32 | 16
11 | COc1cc2nc(-c3cc(F)ccc3O)nc(N[C@@H]3CNC[C@H]3C(C)(C)O)c2cc1OC | 1.67 | 3.42 | 2.31 | 6.09 | 1.98 | 4.14 | 1.74 | 3.15 | 1.67 | 3.11 | 1.75 | 3.38 | 1.91 | 4.02 | 1.86 | 3.41
12 | O=C1c2sccc2-c2cccc3cccc1c23 (tested in a mixture with another compound) |  |  |  | 47.2 |  | 45 |  |  |  | 57.1 |  | 12.2 |  | 35 |  | > 100
13 | COc1cc2c(cc1OC)-c1ncc3c(OC)c(OC)c(OC)cc3c1C2 |  |  | 13.4 | 45 | 25.8 | > 100 | 23.5 | > 100 |  |  | 16.7 | 43.8 | 23 | 50 | > 100 | > 100
14 | N#CCCN1C/C(=C/c2ccc(Cl)cc2)C(=O)/C(=C/c2ccc(Cl)cc2)C1 | 2.18 | 5.61 | 3.4 | 52.2 |  |  | 1.59 | 2.98 | 1.77 | 3.41 | 1.63 | 3.28 | 1.31 | 2.72 | 1.91 | 3.9
15 | COc1ccc(NC(=O)C2CCC(CNS(=O)(=O)c3ccccc3)CC2)cc1OC (stereo not given) | > 100 | > 100 | > 100 | > 100 | > 100 | > 100 | > 100 | > 100 | 60.9 | > 100 | > 100 | > 100 |  |  |  | 
16 | C/C(=C\c1cnc(C)s1)[C@@H]1C[C@@H]2O[C@@H]2CCC[C@H](C)[C@H](O)[C@@H](C)C(=O)C(C)(C)[C@@H](O)CC(=O)O1 | < 0.01 | > 100 | 0.0228 | > 100 | 0.0102 | > 100 | < 0.01 | > 100 |  |  | < 0.01 | > 100 | < 0.01 | > 100 | > 100 | > 100
